Reference: US20080255121A1, “Combination Drug for Treating Autoimmune Disease” (DAINIPPON SUMITOMO PHARMA CO., LTD., priority 2004, published 2008)
“Also recorded” adds a separate entry of the source.

Tests used:
[1] = system: Akt; assay: Phosphorylation of Akt in bFGF stimulated fibroblasts (Western blotting); type: cell-based, mouse; conditions: Compound (I) 20 μM, KN-93 20 μM; L929 cells; FIG. 19
Method: Effects of Compound (I) and KN-93 on effect on the expression of cyclin D1 and the phosphorylation of Akt when fibroblasts were stimulated with basic fibroblast growth factor (bFGF) were evaluated.
L929 cells (mouse fibroblast cell line) were cultured in MEM-Earl medium (E-MEM: GIBCO, Inc.) containing 10% fetal bovine serum and subjected to the experiment. The cells were suspended in a serum-free E-MEM and cultured for 72 hours. An E-MEM medium containing the test substance was added and incubated for 1 hour, and an E-MEM medium containing recombinant human FGF basic (bFGF) as a stimulant was added and further incubated. The cells were lysed in a RIPA buffer and a total cell lysate was obtained. After performing SDS-PAGE, proteins were transferred onto a PVDF membrane and western blotting was performed with anti-cyclin antibody or anti-Akt antibody (both available from Santa Cruz, Inc.).

[2] = target: T1, CaMKIIα derived from rat (Rattus norvegicus, UniProt P11275); assay: Examination of CaMKII inhibitory activity (1), phosphorylation of Autocamtide-2; type: biochemical
T1 construct: purchased Santa Cruz, Inc
Method: Test substances were dissolved in DMSO and diluted to various concentrations with a buffer solution (50 mM Tris-HCl: pH 7.5, 10 mM MgCl2, 1 mM Dithiothreitol (DTT)) (all of them are available from Nacalai Tesque, Inc.) for CaMKII reaction. CaMKIIα (final concentration 0.75 μg/ml) (Santa Cruz, Inc.) derived from rat was mixed with Autocamtide-2® (40 μM) (CALBIOCHEM Company) dissolved in CaMKII reaction buffer solution in the presence of the test substance and with CaMKII activation buffer solution (1 mMCaCl2, 1 μM calmodulin) (Nacalai Tesque, Inc.) and the reaction was started by further adding ATP (50 μM) (Nacalai Tesque, Inc.). The reaction was performed at 30° C. for five minutes and then SDS-PAGE sample buffer solution was added and the reaction was terminated by boiling for five minutes. Proteins in the reaction mixture were separated by 15% SDS-PAGE and blotted onto a PVDF membrane. Phosphorus taken in by Autocamtide-2 was reacted with an anti-phosphorylated serine/threonine antibody (Santa Cruz, Inc.) and quantified by ECL system (Amersham, Inc.) and NIH Image (downloadable from http://rsb.info.nih.gov/nih-image/).

[3] = system: IκBα; assay: Degradation of IκBα in stimulated T-lymphocytes (Western blotting); type: cell-based, mouse; conditions: Compound (I) 30 μM, KN-93 10 μM; EL-4 cells; FIG. 17
Method: Effects of Compound (I) and KN-93 on the degradation of IκBα when T-lymphocytes were stimulated with Phorbol 12-myristate 13-acetate (PMA) and Calcium Ionophore A23187 were evaluated.
EL-4 cells (mouse T-lymphocyte cell line) were cultured in Dulbecco's Modified Eagle Medium (DMEM: GIBCO, Inc.) containing 10% fetal bovine serum and subjected to the experiments. Cells subconfluently multiplied were collected by centrifugation and dispensed into Eppendorf tubes to be contained at 5×10^6 cells/tube. After Compound (I) (final 30 μM) or KN-93 (final 10 μM) was added and preincubated at 37° C. in a water bath, stimulation by PMA (final 125 ng/ml) and A23187 (final 1 μg/ml) was performed (total volume 500 μl). After incubated for 15 minutes or 30 minutes after the stimulation, 1 ml of an ice cold stop solution (1×PBS, 1 mM Na3VO4, 5 mM EDTA) was added to terminate the reaction. After centrifugation and rinsing, it was dissolved in TNE buffer (50 mMTris-HCl, 1% NP-40, 20 mM EDTA, 100 μg/ml PMSF, 30 μl/ml Aprotinin, 1 mM Na3VO4, 5 mM NaF, 12 mM β-glycerophosphate). After performing 12% SDS-PAGE, proteins were transferred onto a PVDF membrane and western blotting was performed with anti-IκBα antibody (C-21, Santa Cruz, Inc.).

[4] = system: osteoclasts; assay: Formation of osteoclasts from cells of collagen arthritis mouse leg (TRAP staining); type: cell-based; conditions: Compound (I) 0.5 to 20 μM, KN-93 0.3 to 5 μM; nine days; FIG. 5
Method: Effects of Compound (I) and KN-93 on the formation of osteoclasts were evaluated.
A mouse leg affected with developed collagen arthritis was removed and treated in an α-MEM culture medium (GIBCO, Inc.) containing 10% fetal bovine serum in the presence of dispase (Godo Shuzo) and collagenase S1 (Nitta Gelatin Inc.) at 37° C. for five to six hours and monodisperse cell suspended liquid was collected. This sample was centrifuged, rinsed by resuspension and subjected to the experiment. The cells were disseminated in 96-well plate in a ratio of 2×10^4 cells/well, an α-MEM medium containing the test compound was added thereto and incubated for nine days. After the incubation, osteoclasts were stained with a kit (Sigma, Inc.) for TRAP staining and the number of the osteoclasts per well was measured by microscopic observation. The TRAP staining was carried out in accordance with instructions attached to the kit.

[5] = system: L929 cells; assay: Proliferation of fibroblasts stimulated with bFGF (Brd-U uptake); type: cell-based, mouse; conditions: Compound (I) 0.3 to 10 μM, KN-93 1 to 30 μM; FIG. 3
Method: Effects of Compound (I) and KN-93 on the proliferation of fibroblasts when the fibroblasts were stimulated with basic fibroblast growth factor (bFGF) were evaluated.
L929 cells (mouse fibroblast cell line) were cultured in MEM-Earl medium (E-MEM: GIBCO, Inc.) containing 10% fetal bovine serum and subjected to the experiment. The cells were suspended in a serum-free E-MEM and disseminated in 96-well plate in a ratio of 2×10^4 cells/well and incubated for 72 hours. An E-MEM medium containing the test substance was added and incubated for 1 hour, and an E-MEM medium containing recombinant human FGF basic (bFGF) as a stimulant was added and incubated for 20 hours. 5-Bromo2′-deoxyuridine (Brd-U) solution was added to each well and incubated at 37° C. for further four hours. The cells were fixed and uptake of Brd-U was detected by Cell proliferation ELISA system (Amersham) and absorbance at 450 nm was measured with a microplate reader. This value of absorbance was used as an index of cell proliferation.

[6] = system: SW982 cells; assay: Proliferation of human synovial cells (Alamar Blue); type: cell-based; conditions: Compound (I) 1 to 30 μM, KN-93 1 to 30 μM; FIG. 4
Method: Effects of Compound (I) and KN-93 on the proliferation of SW982 cells (human synovial cell line) were evaluated.
SW982 cells (human synovial cell line; obtained from ATCC) was cultured in a FCS (product of SIGMA, Inc.) containing DMEM medium (product of GIBCO, Inc.) and subjected to the experiment. SW982 was disseminated in 96-well flat bottom plate in the absence of serum in a ratio of 4×10^4 cells/well. Compounds were added at the same time of the dissemination of the cells and incubated at 200 μl cells/well. 20 μl of Alamar Blue® was added to each well (BIOSOURCE, Inc.) after 18 hours and incubated for further six hours and the absorbance of each well was measured with a microplate reader. The absorbance was measured at two wavelengths of 570 nm and 600 nm.

T1 sequence (P11275 whole entry): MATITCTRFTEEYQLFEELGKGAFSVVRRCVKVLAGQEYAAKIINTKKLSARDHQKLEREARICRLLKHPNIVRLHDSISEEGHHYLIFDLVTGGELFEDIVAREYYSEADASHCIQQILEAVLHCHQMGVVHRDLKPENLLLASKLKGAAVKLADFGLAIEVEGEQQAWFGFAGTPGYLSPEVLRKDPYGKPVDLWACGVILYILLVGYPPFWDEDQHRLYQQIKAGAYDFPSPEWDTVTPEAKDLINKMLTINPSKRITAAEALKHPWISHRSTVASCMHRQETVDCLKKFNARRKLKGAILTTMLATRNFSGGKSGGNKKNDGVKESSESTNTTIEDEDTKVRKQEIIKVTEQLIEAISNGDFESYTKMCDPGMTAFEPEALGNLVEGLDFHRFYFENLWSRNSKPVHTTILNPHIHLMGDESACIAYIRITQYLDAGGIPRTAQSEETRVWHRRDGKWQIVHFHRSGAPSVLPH

Structure (SMILES) | phosphorylation of Akt [1] | Inhibition rate (%) ([2]; Concentration 0.1 μm) | Inhibition rate (%) ([2]; Concentration 1 μm) | Inhibition rate (%) ([2]; Concentration 10 μm) | degradation of IκBα [3] | formation of osteoclasts [4] | proliferation of fibroblasts [5] | proliferation of SW982 cells [6]
C[C@@H](c1ccc(-c2ccccc2)c(F)c1)c1cc(/N=C(/N)N2CCOCC2)on1 [Compound (I), 3-[(1S)-1-(2-fluorobiphenyl-4-yl)ethyl]-5-{[amino(morpholin-4-yl)methylene]amino}isoxazole] | suppressed the phosphorylation of Akt | 39 | 47 | 85 | suppressed the degradation of IκBα | dose-dependently suppressed the formation of osteoclasts | dose-dependently suppressed the proliferation of fibroblasts | dose-dependently suppressed the proliferation of human synovial cells; also recorded: almost completely suppressed
COc1ccc(S(=O)(=O)N(CCO)c2ccccc2CN(C)C/C=C/c2ccc(Cl)cc2)cc1 [KN-93, N-(2-[N-[4-chlorocinnamyl]-N-methylaminomethyl]phenyl)-N-(2-hydroxyethyl)-4-methoxybenzenesulfonamide, reference compound] | suppressed the phosphorylation of Akt | 25 | 58 | 77 | suppressed the degradation of IκBα | dose-dependently suppressed the formation of osteoclasts | dose-dependently suppressed the proliferation of fibroblasts | dose-dependently suppressed the proliferation of human synovial cells; also recorded: almost completely suppressed
